In publication PMC8252737 (Angewandte Chemie (International Ed. in English), 2021):

Assays:
EV D68 3C protease [1] = molecular target: T1, EV D68 3C protease (Enterovirus D68, UniProt A1E4A3); experiment: Fragment ligation screening / FRET assay of fragments and aldehyde 1; assay type: biochemical; conditions: fragment 19 μM + aldehyde 1 19 μM, 2 h incubation, p<0.05
T1 sequence (A1E4A3 1549-1731): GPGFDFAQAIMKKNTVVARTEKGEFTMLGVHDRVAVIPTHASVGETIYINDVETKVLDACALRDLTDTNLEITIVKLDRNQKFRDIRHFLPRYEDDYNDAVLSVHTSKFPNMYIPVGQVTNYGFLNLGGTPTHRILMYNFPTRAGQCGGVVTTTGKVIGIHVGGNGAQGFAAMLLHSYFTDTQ

EV D68 3C protease [2] = molecular target: T1, EV D68 3C protease; experiment: Tryptic digest and MS of protein-inhibitor complex; assay type: binding; conditions: trypsin digest of protein-inhibitor complex

Compound	Inhibition of the protease in combination with aldehyde 1 compared to the aldehyde alone (EV D68 3C protease [1])	Alkylation of the 13mer peptide containing Cys147 (EV D68 3C protease [2])
CC(=O)CC#N [Compound F4, 3‐oxo‐butane nitrile]	significantly increased inhibition	
CCOC(=O)C=Cc1cccc(C(N)=O)c1 [Compound 13, O‐ethyl 3‐carbamoyl‐cinnamoyl ester]		complete alkylation
CCOC(=O)CC#N [Compound F1, O‐ethyl 2‐cyano‐acetate]	significantly increased inhibition	
